{"source": "patent US7914812B2", "about": "“Wound care dressing and method using same” (priority 2004, dated 2011)", "origin": "cited, not measured here"}
{"settings": "25° C.", "units": {"Solubility ww % (25° C.)": "ww %"}}
{"molecule": "OC[C@@H](O)[C@H](O)[C@@H](O)CO", "note": "[Xylitol]", "Solubility ww % (25° C.)": 66}
{"molecule": "OC[C@@H](O)[C@@H](O)CO", "note": "[Erythritol]", "Solubility ww % (25° C.)": 36}
{"molecule": "OC[C@@H](O)[C@@H](O[C@@H]1O[C@H](CO)[C@H](O)[C@H](O)[C@H]1O)[C@H](O)[C@@H](O)CO", "note": "[Lactitol]", "Solubility ww % (25° C.)": 58}
{"molecule": "OC[C@@H](O)[C@@H](O)[C@H](O)[C@@H](O)CO", "note": "[Sorbitol]", "Solubility ww % (25° C.)": 72}
{"molecule": "OC[C@@H](O)[C@@H](O)[C@H](O)[C@H](O)CO", "note": "[Mannitol]", "Solubility ww % (25° C.)": 18}
{"molecule": "Isomalt", "Solubility ww % (25° C.)": 28}
{"molecule": "OC[C@@H](O)[C@@H](O[C@H]1O[C@H](CO)[C@@H](O)[C@H](O)[C@H]1O)[C@H](O)[C@@H](O)CO", "note": "[Maltitol]", "Solubility ww % (25° C.)": 60}
{"settings": "at about 37° C., i.e. body temperature; water"}
{"molecule": "OC[C@H]1O[C@@](CO)(O[C@H]2O[C@H](CO)[C@@H](O)[C@H](O)[C@H]2O)[C@@H](O)[C@@H]1O", "note": "[sucrose]", "solubility": "about 78 grams per 100 grams of water"}
{"molecule": "OC[C@@H](O)[C@@H](O)[C@H](O)[C@H](O)CO", "note": "[Mannitol]", "solubility": "about 23 grams per 100 grams of water"}
